Assay results published in patent publication US20260083723A1, “THERAPEUTIC AGENT OR PROPHYLACTIC AGENT FOR AMYOTROPHIC LATERAL SCLEROSIS” (Toray Industries, Inc., priority 2022, published 2026).
Counter-ions that a name gives are not always drawn.

Assay: In vitro radical scavenging action (DPPH method)
Conditions: for EC50: 1.2-100 μmol/L, 30 minutes at room temperature, absorbance at 517 nm
Description: The radical scavenging action of a test compound can be evaluated using an in vitro test and, for example, by a method (Antioxidants, 2019, vol. 258) using a stable radical, 1,1-diphenyl-2-picrylhydrazil (DPPH).
Radical scavenging action was evaluated using the DPPH method in the compound of Comparative Example 1, which is a tetrahydroquinoxaline derivative, and in the tetrahydroquinoline derivative (I) or a pharmaceutically acceptable salt thereof. The DPPH method was performed using an antioxidant capacity measurement kit (Dojindo Laboratories).
A test compound was dissolved in DMSO, and the resulting solution was then mixed with an assay buffer and a DPPH solution, which are included in the kit, to a total volume of 200 μL to obtain a final concentration of 10% DMSO, and the reaction was allowed to proceed. Wells added with […] ferrostatin-1, a radical scavenger, were grouped as “control,” and wells not added with test compound were grouped as “background”. The test compound was serially diluted 3-fold starting from a maximum concentration of 100 μmol/L, and the diluted test compound (1.2, 3.7, 11.1, 33.3, or 100 μmol/L) was added and allowed to react at room temperature. Thirty minutes after the reaction, the absorbance at 517 nm was measured, and the average absorbance value was calculated (N=2). The radical scavenging action of the test compound (hereinafter referred to as radical scavenging rate, %) was calculated based on Equation 2. The EC50 value of the test compound was calculated from the radical scavenging rate.
A note “no detection of radical scavenging action (N.D.),” is given to compounds with a EC50 of >100 μmol/L.

O=C(Cc1ccc2c(c1)CCC(c1ccccc1)N2)N1CC(O)C1 (centres unmarked) [Example 62, 1-(3-hydroxyazetidin-1-yl)-2-(2-phenyl-1,2,3,4-tetrahydroquinolin-6-yl)ethan-1-one] showed an EC50 of over 100 µM.
Work on O=C(Cc1ccc2c(c1)CCC(c1ccccc1)N2)N1CCC1 (centres unmarked) [Example 151, 1-(azetidin-1-yl)-2-(2-phenyl-1,2,3,4-tetrahydroquinolin-6-yl)ethan-1-one] yielded an EC50 of over 100 µM.
Molecule O=C(Cc1ccc2c(c1)CCC(c1ccccc1)N2)N1CC(O)C1 (centres unmarked) [Example 144, 1-(3-hydroxyazetidin-1-yl)-2-(2-phenyl-1,2,3,4-tetrahydroquinolin-6-yl)ethan-1-one hydrochloride] has an EC50 of over 100 µM.
Work on NS(=O)(=O)c1ccc(C2CCc3c(F)cccc3N2)cc1 (centres unmarked) [Example 135, 4-(5-fluoro-1,2,3,4-tetrahydroquinolin-2-yl)benzenesulfonamide] yielded an EC50 of over 100 µM.
NS(=O)(=O)c1ccc(C2CCc3cc(F)ccc3N2)cc1 (centres unmarked) [Example 108, 4-(6-fluoro-1,2,3,4-tetrahydroquinolin-2-yl)benzenesulfonamide] showed an EC50 of over 100 µM.
Molecule NS(=O)(=O)c1ccc(C2CCc3ccccc3N2)cc1 (centres unmarked) [Example 32, 4-(1,2,3,4-tetrahydroquinolin-2-yl)benzenesulfonamide] has an EC50 of over 100 µM.
In the case of N#Cc1ccc(C2CCc3ccccc3N2)cc1 (centres unmarked) [Example 35, 4-(1,2,3,4-tetrahydroquinolin-2-yl)benzonitrile], the EC50 is reported as over 100 µM.
COC1CN(C(=O)Cc2ccc3c(c2)CCC(c2ccccc2)N3)C1 (centres unmarked) [Example 147, 1-(3-methoxyazetidin-1-yl)-2-(2-phenyl-1,2,3,4-tetrahydroquinolin-6-yl)ethan-1-one] gave an EC50 of over 100 µM.
In the case of c1ccc([C@H]2CCc3ccccc3N2)cc1 [Example 2, (R)-2-phenyl-1,2,3,4-tetrahydroquinoline], the EC50 is reported as over 100 µM.
Work on CS(=O)(=O)c1ccc(C2CCc3ccccc3N2)cc1 (centres unmarked) [Example 16, 2-(4-(methylsulfonyl)phenyl)-1,2,3,4-tetrahydroquinoline] yielded an EC50 of over 100 µM.
FC(F)(F)c1ccc(C2CCc3ccccc3N2)cc1 (centres unmarked) [Example 29, 2-(4-(trifluoromethyl)phenyl)-1,2,3,4-tetrahydroquinoline] gave an EC50 of over 100 µM.
Work on Cc1ccc2c(c1)CCC(c1ccc(C(N)=O)cc1)N2 (centres unmarked) [Example 99, 4-(6-methyl-1,2,3,4-tetrahydroquinolin-2-yl)benzamide] yielded an EC50 of over 100 µM.
In the case of NC(=O)c1ccc(C2CCc3cc(Cl)ccc3N2)cc1 (centres unmarked) [Example 122, 4-(6-chloro-1,2,3,4-tetrahydroquinolin-2-yl)benzamide], the EC50 is reported as over 100 µM.
For CC(=O)Nc1ccc(C2CCc3ccccc3N2)cc1 (centres unmarked) [Example 21, N-(4-(1,2,3,4-tetrahydroquinolin-2-yl)phenyl)acetamide], the EC50 was over 100 µM.
NS(=O)(=O)c1ccc(C2CCc3ccccc3N2)cc1 (centres unmarked) [Example 34, 4-(1,2,3,4-tetrahydroquinolin-2-yl)benzenesulfonamide] showed an EC50 of over 100 µM.
For Clc1ccc2c(c1)CCC(c1ccccc1)N2 (centres unmarked) [Example 83, 6-chloro-2-phenyl-1,2,3,4-tetrahydroquinoline], the EC50 was over 100 µM.
FC(F)(F)Oc1ccc2c(c1)CCC(c1ccccc1)N2 (centres unmarked) [Example 81, 2-phenyl-6-(trifluoromethoxy)-1,2,3,4-tetrahydroquinoline] gave an EC50 of over 100 µM.
NS(=O)(=O)c1ccc(C2CCc3ccccc3N2)cc1 (centres unmarked) [Example 33, 4-(1,2,3,4-tetrahydroquinolin-2-yl)benzenesulfonamide] showed an EC50 of over 100 µM.
NS(=O)(=O)c1ccc(C2CCc3ccc(F)cc3N2)cc1 (centres unmarked) [Example 118, 4-(7-fluoro-1,2,3,4-tetrahydroquinolin-2-yl)benzenesulfonamide] gave an EC50 of over 100 µM.
In the case of c1ccc([C@@H]2CCc3ccccc3N2)cc1 [Example 3, (S)-2-phenyl-1,2,3,4-tetrahydroquinoline], the EC50 is reported as over 100 µM.
CN(CCO)C(=O)Cc1ccc2c(c1)CCC(c1ccccc1)N2 (centres unmarked) [Example 150, N-(2-hydroxyethyl)-N-methyl-2-(2-phenyl-1,2,3,4-tetrahydroquinolin-6-yl)acetamide] gave an EC50 of over 100 µM.
NC(=O)c1ccc(C2CCc3cc(Cl)ccc3N2)cc1 (centres unmarked) [Example 121, 4-(6-chloro-1,2,3,4-tetrahydroquinolin-2-yl)benzamide] showed an EC50 of over 100 µM.
Cc1ccc2c(c1)NC(c1ccc(C(N)=O)cc1)CC2 (centres unmarked) [Example 106, 4-(7-methyl-1,2,3,4-tetrahydroquinolin-2-yl)benzamide] showed an EC50 of over 100 µM.
Fc1ccc2c(c1)CCC(c1ccccc1)N2 (centres unmarked) [Example 82, 6-fluoro-2-phenyl-1,2,3,4-tetrahydroquinoline] showed an EC50 of over 100 µM.
Fc1cccc2c1CCC(c1ccccc1)N2 (centres unmarked) [Example 66, 5-fluoro-2-phenyl-1,2,3,4-tetrahydroquinoline] gave an EC50 of over 100 µM.
With Fc1ccc(C2CCc3ccccc3N2)cc1 (centres unmarked) [Example 26, 2-(4-fluorophenyl)-1,2,3,4-tetrahydroquinoline] the EC50 was over 100 µM.
For Fc1ccc2c(c1)NC(c1ccccc1)CC2 (centres unmarked) [Example 68, 7-fluoro-2-phenyl-1,2,3,4-tetrahydroquinoline], the EC50 was over 100 µM.
For O=C(Cc1ccc2c(c1)CCC(c1ccccc1)N2)NC1CCC1 (centres unmarked) [Example 155, N-cyclobutyl-2-(2-phenyl-1,2,3,4-tetrahydroquinolin-6-yl)acetamide], the EC50 was over 100 µM.
Molecule O=C(Cc1ccc2c(c1)CCC(c1ccccc1)N2)N1CCOCC1 (centres unmarked) [Example 145, 1-morpholino-2-(2-phenyl-1,2,3,4-tetrahydroquinolin-6-yl)ethan-1-one] has an EC50 of over 100 µM.
Molecule CC1(C)CN(C(=O)Cc2ccc3c(c2)CCC(c2ccccc2)N3)C1 (centres unmarked) [Example 146, 1-(3,3-dimethylazetidin-1-yl)-2-(2-phenyl-1,2,3,4-tetrahydroquinolin-6-yl)ethan-1-one] has an EC50 of over 100 µM.
O=C(Cc1ccc2c(c1)CCC(c1ccccc1)N2)NC1CC1 (centres unmarked) [Example 152, N-cyclopropyl-2-(2-phenyl-1,2,3,4-tetrahydroquinolin-6-yl)acetamide] gave an EC50 of over 100 µM.
Molecule NC(=O)c1ccc(C2CCc3ccccc3N2)cc1 (centres unmarked) [Example 38, 4-(1,2,3,4-tetrahydroquinolin-2-yl)benzamide] has an EC50 of over 100 µM.
With NS(=O)(=O)c1ccc(C2CCc3cc(F)ccc3N2)cc1 (centres unmarked) [Example 109, 4-(6-fluoro-1,2,3,4-tetrahydroquinolin-2-yl)benzenesulfonamide] the EC50 was over 100 µM.
Molecule Cc1ccc2c(c1)CCC(c1ccc(S(N)(=O)=O)cc1)N2 (centres unmarked) [Example 119, 4-(6-methyl-1,2,3,4-tetrahydroquinolin-2-yl)benzenesulfonamide] has an EC50 of over 100 µM.
Work on Cc1cccc2c1CCC(c1ccc(S(N)(=O)=O)cc1)N2 (centres unmarked) [Example 112, 4-(5-methyl-1,2,3,4-tetrahydroquinolin-2-yl)benzenesulfonamide] yielded an EC50 of over 100 µM.
NC(=O)c1ccc(C2CCc3cc(Cl)ccc3N2)cc1 (centres unmarked) [Example 131, 4-(6-chloro-1,2,3,4-tetrahydroquinolin-2-yl)benzamide] showed an EC50 of over 100 µM.
NS(=O)(=O)c1ccc(C2CCc3cc(F)ccc3N2)cc1 (centres unmarked) [Example 107, 4-(6-fluoro-1,2,3,4-tetrahydroquinolin-2-yl)benzenesulfonamide] showed an EC50 of over 100 µM.
NC(=O)Cc1ccc2c(c1)CCC(c1ccccc1)N2 (centres unmarked) [Example 60, 2-(2-phenyl-1,2,3,4-tetrahydroquinolin-6-yl)acetamide] gave an EC50 of over 100 µM.
Molecule O=C1CN(C(=O)Cc2ccc3c(c2)CCC(c2ccccc2)N3)CCN1 (centres unmarked) [Example 157] has an EC50 of over 100 µM.
Fc1cc2c(cc1F)NC(c1ccccc1)CC2 (centres unmarked) [Example 85, 6,7-difluoro-2-phenyl-1,2,3,4-tetrahydroquinoline] gave an EC50 of over 100 µM.
For Clc1cccc2c1CCC(c1ccccc1)N2 (centres unmarked) [Example 67, 5-chloro-2-phenyl-1,2,3,4-tetrahydroquinoline], the EC50 was over 100 µM.
For c1ccc(C2CNc3ccccc3N2)cc1 (centres unmarked) [Comparative Example 1, 2-phenyl-1,2,3,4-tetrahydroquinoxaline, reference compound], the “radical scavenging action (in words)” value was “exhibited radical scavenging action” and the EC50 was 8.54 µM.
For NC(=O)c1ccc(C2CCc3c(F)cccc3N2)cc1 (centres unmarked) [Example 137, 4-(5-fluoro-1,2,3,4-tetrahydroquinolin-2-yl)benzamide], the EC50 was over 100 µM.
CS(=O)(=O)Nc1ccc(C2CCc3ccccc3N2)cc1 (centres unmarked) [Example 136, N-(4-(1,2,3,4-tetrahydroquinolin-2-yl)phenyl)methanesulfonamide] gave an EC50 of over 100 µM.
In the case of NC(=O)c1ccc(C2CCc3ccccc3N2)cc1 (centres unmarked) [Example 37, 4-(1,2,3,4-tetrahydroquinolin-2-yl)benzamide], the EC50 is reported as over 100 µM.
For OCc1ccc2c(c1)CCC(c1ccccc1)N2 (centres unmarked) [Example 58, (2-phenyl-1,2,3,4-tetrahydroquinolin-6-yl)methanol], the EC50 was over 100 µM.
For NS(=O)(=O)c1ccc(C2CCc3cc(Cl)ccc3N2)cc1 (centres unmarked) [Example 116, 4-(6-chloro-1,2,3,4-tetrahydroquinolin-2-yl)benzenesulfonamide], the EC50 was over 100 µM.
In the case of O=C(Cc1ccc2c(c1)CCC(c1ccccc1)N2)N1CC(O)C1 (centres unmarked) [Example 143, 1-(3-hydroxyazetidin-1-yl)-2-(2-phenyl-1,2,3,4-tetrahydroquinolin-6-yl)ethan-1-one hydrochloride], the EC50 is reported as over 100 µM.
Work on NS(=O)(=O)c1ccc(C2CCc3c(Cl)cccc3N2)cc1 (centres unmarked) [Example 134, 4-(5-chloro-1,2,3,4-tetrahydroquinolin-2-yl)benzenesulfonamide] yielded an EC50 of over 100 µM.
